Experimental data taken from patent US4606911A, “Pharmaceutical composition for the prevention of dental caries” (Rohto Pharmaceutical Co. Ltd., priority 1984, dated 1986).
≈ marks a conversion by molar mass, not a printed value. Entries after “also recorded” stand apart in the source; their conditions may differ. Read-outs that look alike come from different tables or passages of the source.

Tests used:
Type in all cases: cell-based
[1] = test system: Streptococcus salivarius ATCC 9222; experiment: Antibacterial activity (MIC, growth in BHI medium); set-up: key to Antibacterial activity (growth): -: grow; ±: slightly grow; +: not grow
Method: (§1) To a test tube was charged 3.8 ml of Brain Heart Infusion (BHI) medium, and 100 μl of a sample solution containing oleanolic, ursolic or glycyrrhetic acid and 100 μl of pre-incubated culture of bacterium selected from those listed below were added thereto. The mixture was incubated at 37° C. and then allowed to stand over night. The extent of the growth of bacterium was observed after two or five days. The MIC value was determined for each sample and summarized in Table 2. |Streptococcus salivarius ATCC 9222

[2] = test system: Pseudomonas aeruginosa KM338; experiment: Antibacterial activity (MIC, growth in BHI medium); set-up: key to Antibacterial activity (growth): -: grow; ±: slightly grow; +: not grow
Method: as §1, with “|Pseudomonas aeruginosa KM338” for “|Streptococcus salivarius ATCC 9222”

[3] = test system: Serratia marcescens IFO 12648; experiment: Antibacterial activity (MIC, growth in BHI medium); set-up: key to Antibacterial activity (growth): -: grow; ±: slightly grow; +: not grow
Method: as §1, with “|Serratia marcescens IFO 12648” for “|Streptococcus salivarius ATCC 9222”

[4] = test system: Esherichia coli K12; experiment: Antibacterial activity (MIC, growth in BHI medium); set-up: key to Antibacterial activity (growth): -: grow; ±: slightly grow; +: not grow
Method: as §1, with “days.” for “days. The MIC value was determined for each sample and summarized in Table 2. |Streptococcus salivarius ATCC 9222”
Esherichia coli K12 (Gram negative)

[5] = test system: Staphylococcus aureus 209P; experiment: Antibacterial activity (MIC, growth in BHI medium); set-up: key to Antibacterial activity (growth): -: grow; ±: slightly grow; +: not grow
Method: as §1, with “|Staphylococcus aureus […]” for “|Streptococcus salivarius ATCC 9222”

[6] = test system: Bacillus megaterium QM B1551; experiment: Antibacterial activity (MIC, growth in BHI medium); set-up: key to Antibacterial activity (growth): -: grow; ±: slightly grow; +: not grow
Method: as §1, with “|Bacillus megaterium QM B1551” for “|Streptococcus salivarius ATCC 9222”

[7] = test system: Streptococcus mutans OMZ 176; experiment: Antibacterial activity (MIC, growth in BHI medium); set-up: key to Antibacterial activity (growth): -: grow; ±: slightly grow; +: not grow
Method: as §1, with “days.” for “days. The MIC value was determined for each sample and summarized in Table 2. |Streptococcus salivarius ATCC 9222”
Streptococcus mutans OMZ 176

[8] = test system: S. mutans OMZ 176 (serotype d); experiment: microbe, parasite or virus in culture; conditions: for inhibition at 10 µg/mL / inhibition at 20 µg/mL / inhibition at 30 µg/mL / inhibition at 50 µg/mL / inhibition at 100 µg/mL: Streptococcus mutans, read-out: Adherence-inhibiting activity (AIP); for adherence-inhibiting activity (in words): text statement
Method: The adherence-inhibiting activity of the triterpenes of the formula (I) was measured using an inner wall of a test tube in place of the surface of a tooth.
To 2.9 ml of BHI medium containing 5% sucrose in a test tube (i) are added 30 μl of a sample solution prepared by dissolving a compound of: the formula (I) in H2 O or dimethylsulfoxide (DMSO) and 100 μl of culture medium containing S. mutans OMZ 176 (serotype d) which was preincuvated at 37° C. for 24 hours in BHI medium, and the mixture is incubated at 37° C. for 20 hours, with the test tube being maintained at a slant of 30°. The test tube is revolved gently two or three times and the supernatant is transferred to another test tube (ii). To the first test tube (i) is added 3 ml of 50 mM phosphate buffer (pH 7.5), and the test tube is gently revolved two or three times. The resultant supernatant is transferred to the third test tube (iii). The test tubes (ii) and (iii) are each centrifuged and respective supernatants are discarded. To each of the test tubes (i), (ii) and (iii) is added 3 ml of 0.5M NaOH, and the test tubes are shaken to suspend bacterial cells. Absorbance of the resulting suspension is measured at 660 nm. The absorbances obtained with respect to the test tube (i), (ii) and (iii) are represented by Ab(i), Ab(ii) and Ab(iii), respectively. Ab(i) reflects the amount of the bacterial cells adhered to the wall of the test tube and Ab(ii) and Ab(iii) correspond to the amount of the bacterial cells not adhered to the wall.
The same procedure is repeated using 30 μl of distilled water or DMSO in place of the sample solution to obtain a control. The absorbance of the control is represented by Ab(Cont.).
Adherence percentage of bacteria is calculated from the following equation. [formula]
Adherence inhibitory percentage (AIP) is calculated using the adherence percentage according to the following equation. [formula]
The magnitude of adherence-inhibiting activity of each of the samples is shown, in Table 3, by the use of the following symbols: […]

## CC1(C)[C@@H](O)CC[C@]2(C)[C@H]3C(=O)C=C4[C@@H]5C[C@@](C)(C(=O)O)CC[C@]5(C)CC[C@@]4(C)[C@]3(C)CC[C@@H]12 [Glycyrrhetic acid]
[1]; 10 μg/ml
  Antibacterial activity (growth): -
[1]; 25 μg/ml
  Antibacterial activity (growth): -
[1]; 50 μg/ml
  Antibacterial activity (growth): -
[1]; 100 μg/ml
  Antibacterial activity (growth): -
[1]; 200 μg/ml
  Antibacterial activity (growth): -
[1]; 400 μg/ml
  Antibacterial activity (growth): ±
[1]; ATCC9222, Streptococcus salivarius, BHI, 37° C., read-out: MIC (minimum inhibitory concentration)
  MIC: > 400 µg/mL
[1]; text statement
  antibacterial action on Streptococcus salivarius (in words): remain unaffected
[2]; 10 μg/ml
  Antibacterial activity (growth): -
[2]; 25 μg/ml
  Antibacterial activity (growth): -
[2]; 50 μg/ml
  Antibacterial activity (growth): -
[2]; 100 μg/ml
  Antibacterial activity (growth): -
[2]; 200 μg/ml
  Antibacterial activity (growth): -
[2]; 400 μg/ml
  Antibacterial activity (growth): -
[2]; KM338, Pseudomonas aeruginosa, BHI, 37° C., read-out: MIC (minimum inhibitory concentration)
  MIC: > 400 µg/mL
[2]; text statement
  antibacterial action on Pseudomonas aeruginosa (in words): remain unaffected
[3]; 10 μg/ml
  Antibacterial activity (growth): -
[3]; 25 μg/ml
  Antibacterial activity (growth): -
[3]; 50 μg/ml
  Antibacterial activity (growth): -
[3]; 100 μg/ml
  Antibacterial activity (growth): -
[3]; 200 μg/ml
  Antibacterial activity (growth): -
[3]; 400 μg/ml
  Antibacterial activity (growth): -
[3]; IFO12648, Serratia marcescens, BHI, 37° C., read-out: MIC (minimum inhibitory concentration)
  MIC: > 400 µg/mL
[3]; text statement
  antibacterial action on Serratia marcescens (in words): remain unaffected
[4]; 10 μg/ml
  Antibacterial activity (growth): -
[4]; 25 μg/ml
  Antibacterial activity (growth): -
[4]; 50 μg/ml
  Antibacterial activity (growth): -
[4]; 100 μg/ml
  Antibacterial activity (growth): -
[4]; 200 μg/ml
  Antibacterial activity (growth): -
[4]; 400 μg/ml
  Antibacterial activity (growth): -
[4]; Esherichia coli, BHI, 37° C., read-out: MIC (minimum inhibitory concentration)
  MIC: > 400 µg/mL
[4]; text statement
  antibacterial action on Escherichia coli (in words): remain unaffected
[5]; 10 μg/ml
  Antibacterial activity (growth): -
[5]; 25 μg/ml
  Antibacterial activity (growth): -
[5]; 50 μg/ml
  Antibacterial activity (growth): -
[5]; 100 μg/ml
  Antibacterial activity (growth): -
[5]; 200 μg/ml
  Antibacterial activity (growth): -
[5]; 400 μg/ml
  Antibacterial activity (growth): -
[5]; 209P, Staphylococcus aureus, BHI, 37° C., read-out: MIC (minimum inhibitory concentration)
  MIC: 400 µg/mL (≈ 850 µM)
[5]; text statement
  antibacterial action on Staphylococcus aureus (in words): remain unaffected
[6]; 10 μg/ml
  Antibacterial activity (growth): -
[6]; 25 μg/ml
  Antibacterial activity (growth): +
[6]; 50 μg/ml
  Antibacterial activity (growth): +
[6]; 100 μg/ml
  Antibacterial activity (growth): +
[6]; 200 μg/ml
  Antibacterial activity (growth): +
[6]; 400 μg/ml
  Antibacterial activity (growth): +
[6]; Priestia megaterium, QMB1551, Bacillus megaterium, BHI, 37° C., read-out: MIC (minimum inhibitory concentration)
  MIC: 25 µg/mL (≈ 53.1 µM)
[6]; text statement
  antibacterial activity on Bacillus megaterium (in words): exhibits a selective antibacterial activity on S. mutans and Bacillus megaterium
[7]
  antibacterial activity to S. mutans (in words): exhibits a selective antibacterial activity on S. mutans and Bacillus megaterium; also recorded: very strong and selective antibacterial activity to S. mutans
[7]; 10 μg/ml
  Antibacterial activity (growth): +
[7]; 25 μg/ml
  Antibacterial activity (growth): +
[7]; 50 μg/ml
  Antibacterial activity (growth): +
[7]; 100 μg/ml
  Antibacterial activity (growth): +
[7]; 200 μg/ml
  Antibacterial activity (growth): +
[7]; 400 μg/ml
  Antibacterial activity (growth): +
[7]; Streptococcus mutans OMZ 176, BHI, 37° C.
  MIC (minimum inhibitory concentration): lower than 10 μg/ml
[7]; Streptococcus mutans, OMZ176, Streptococcus mutans OMZ 176, BHI, 37° C., read-out: MIC (minimum inhibitory concentration)
  MIC: 10 µg/mL (≈ 21.2 µM)

## CC1(C)[C@@H](O[C@H]2O[C@H](C(=O)O)[C@@H](O)[C@H](O)[C@H]2O[C@@H]2O[C@H](C(=O)O)[C@@H](O)[C@H](O)[C@H]2O)CC[C@]2(C)[C@H]3C(=O)C=C4[C@@H]5C[C@@](C)(C(=O)O)CC[C@]5(C)CC[C@@]4(C)[C@]3(C)CC[C@@H]12 [Glycyrrizic acid, reference compound]
[8]
  inhibition at 10 µg/mL: < 25%
  inhibition at 20 µg/mL: < 25%
  inhibition at 30 µg/mL: < 25%
  inhibition at 50 µg/mL: < 25%
  inhibition at 100 µg/mL: < 25%
  adherence-inhibiting activity (in words): could not be observed
[7]; text statement
  antibacterial activity to S. mutans (in words): could not be observed

## COC(=O)[C@]12CCC(C)(C)C[C@H]1C1=CC[C@@H]3[C@@]4(C)CC[C@H](O)C(C)(C)[C@@H]4CC[C@@]3(C)[C@]1(C)CC2 [Methyl oleanolate (17-position) (a), Methyl oleanolate, reference compound]
[8]
  inhibition at 10 µg/mL: < 25%
  inhibition at 20 µg/mL: < 25%
  inhibition at 30 µg/mL: < 25%
  inhibition at 50 µg/mL: < 25%
  inhibition at 100 µg/mL: < 25%

## CC1(C)CC[C@]2(CO)CC[C@]3(C)C(=CC[C@@H]4[C@@]5(C)CC[C@H](O)C(C)(C)[C@@H]5CC[C@]43C)[C@@H]2C1 [Oleanolic acid (acid reductant) (b), reference compound]
[8]
  inhibition at 10 µg/mL: < 25%
  inhibition at 20 µg/mL: < 25%
  inhibition at 30 µg/mL: < 25%
  inhibition at 50 µg/mL: < 25%
  inhibition at 100 µg/mL: < 25%

## CC1(C)CC[C@]2(C)CC=C3[C@]4(C)CC[C@H]5C(C)(C)[C@@H](O)CC[C@]5(C)[C@H]4CC[C@@]3(C)[C@@H]2C1 [Taraxerol, reference compound]
[8]
  inhibition at 10 µg/mL: < 25%
  inhibition at 20 µg/mL: < 25%
  inhibition at 30 µg/mL: < 25%
  inhibition at 50 µg/mL: < 25%
  inhibition at 100 µg/mL: < 25%
  adherence-inhibiting activity (in words): could not be observed
[7]; text statement
  antibacterial activity to S. mutans (in words): could not be observed

## CC(=O)O[C@H]1CC[C@]2(C)[C@H]3CC=C4[C@@H]5CC(C)(C)CC[C@]5(C(=O)O)CC[C@@]4(C)[C@]3(C)CC[C@H]2C1(C)C [reference compound]
[8]
  inhibition at 10 µg/mL: < 25%
  inhibition at 20 µg/mL: < 25%
  inhibition at 30 µg/mL: < 25%
  inhibition at 50 µg/mL: 25 to 50%
  inhibition at 100 µg/mL: 25 to 50%

## Chikusetsusaponin V [Chikusetsusaponin V (e), reference compound]
[8]
  adherence-inhibiting activity (in words): could not be observed
[7]; text statement
  antibacterial activity to S. mutans (in words): could not be observed
